We go through three compounds from patent publication US11426494B2, “Stents having biodegradable layers” (MT Acquisition Holdings LLC, priority 2007, dated 2022).

Data set [1] is described as follows: drug elution from DES coating. Particulars: heparin+taxol in DES coating, FIG. 9, preliminary data. Format: physicochemical.
The nature of data set [2]: rapamycin degradation in DES coating (peak area ratio, control vs Micell processed). It is filed as physicochemical. The settings on record: Micell processed materials vs control samples, FIG. 6.

In data set [1], heparin had a heparin elution continuing of more than 15 days.

In the case of `CC(=O)O[C@H]1C(=O)[C@@]2(C)[C@H]([C@H](OC(=O)c3ccccc3)[C@]3(O)C[C@H](OC(=O)[C@H](O)[C@@H](NC(=O)c4ccccc4)c4ccccc4)C(C)=C1C3(C)C)[C@]1(OC(C)=O)CO[C@@H]1C[C@@H]2O` [taxol], the “primary drug (taxol) elution profile on addition of a 2nd drug (heparin)” value in data set [1] is “not affecting primary drug (taxol) elution profile”.

In the case of `CO[C@H]1C[C@@H]2CC[C@@H](C)[C@@](O)(O2)C(=O)C(=O)N2CCCC[C@H]2C(=O)O[C@H]([C@H](C)C[C@@H]2CC[C@@H](O)[C@H](OC)C2)CC(=O)[C@H](C)/C=C(\C)[C@@H](O)[C@@H](OC)C(=O)[C@H](C)C[C@H](C)/C=C/C=C/C=C/1C` [rapamycin], in data set [2], the “rate of rapamycin degradation (peak area ratio)” value is recorded as “no difference in the rate of rapamycin degradation”.
